Source: patent EP2711366A1, “Cationic triphenylamine derivatives activable by visible and Infra Red light for inducing and imaging apoptosis in cancer cells” (Institut Curie, priority 2012, dated 2014)

Key:
Assay type in all cases: cell-based
[1] = Dark toxicity (MTT assay, without illumination); details: human; MCF-7 cells, tested in dark; read-out: TC50 (toxicity concentration 50%), dark toxicity
Description: Different experiments were conducted and described below: • MCF7 cells were treated with 2µM of TP2Py or TP3Bzim and exposed to illumination (Fig.9A); • HeLa cells were treated with 2µM of TP2Py or TP3Bzim and exposed to illumination (Fig.9B); • MCF7 cells were treated with TP2Py, 40 min illumination (black circles) or without illumination (white circles) (Fig.9C) • HeLa cells were treated with TP2Py [30 min illumination (black circles) or without illumination (white circles)] or TP3Bzim [15 min illumination (black triangles) or without illumination (white triangles)]
For each experiment, the source of excitation was a Mercury lamp (130W; 380-600nm) with an excitation filter centered at 452nm (± 45 nm), irradiance, 60mW/cm^2.
First, the experiment was calibrated by determining the time of illumination exposure which leads to the toxicity 50%, for a given concentration of TPA (2 µM) and for an irradiance of 60mW/cm^2. […] This characteristic time was then used for the plots shown in Fig. 9C and 9D which represent the cell viability as a function of TPA concentration (in HeLa and MCF-7 cells, respectively).

living MCF-7 cells = test: Cell death induced by two-photon excitation (multiphoton microscopy); details: two-photon λex 860nm, irradiance 1.25W/cm^2
Description: A similar set up was used for two-photon images except that the excitation source was a 80-MHz mode-locked Mai Tai® Ti:Sapphire tunable laser (720-920 nm, 100 fs laser pulse; Spectra Physics, Mountain View, California) tuned to 860 nm.
Living MCF-7 cells were treated with 2 µM of TP2Py for 2 hours, exposed to two-photon excitation and simultaneously observed by multiphoton microscopy [using- a pulsed IR laser source for excitation Mai Tai, Spectra Physics, λex = 860nm; irradiance, 1.25W/cm^2, emission slit setting: 560-720nm].

[2] = tested on: ROS (reactive oxygen species) in MCF7 cells; test: Fluorescence detection of ROS generation with H2DCF-DA probe, flow cytometry; details: 2µM, 2 hours
Description: CF-7 cells were plated in 12-well plates (2.10^5 cells/well) and incubated with 2µM of TP2Py for 2h at 37°C. After a time illumination of 30 min [Irradiance, 40mW/cm^2. The source of excitation was a Mercury lamp (130 W; 380-600 nm) with an excitation filter centered at 452 nm (± 45 nm)], cells were gently scraped, individualized in PBS-EDTA (10 mM) and stained with 10µM of […] (H2DCF-DA) (Molecular Probe, USA) for 45 min. Cells were then washed in ice-cold HEPES buffer before analysis. Fluorescence signals of H2DCF-DA and TP2Py were measured by FACSCalibur flow cytometer using FL1 and FL2 detectors, respectively.
Different experiments are summarized below: • Control MCF7 cells were treated with DMSO (1%) (Fig.13A) without light exposure; • MCF7 cells were plated and treated with H2DCF-DA and 2µM TP2Py for 2 hours without light exposure (Fig.13B); • MCF7 cells were plated and treated with H2DCF-DA and 2µM TP2Py for 2 hours after a time illumination of 30 min (Fig.13C)
The horizontal (FL1-H) and vertical (FL2-H) axes correspond to fluorescence signals of H2DCF-DA and TP2Py, respectively.

MCF-7 cells = test: FITC-conjugated Annexin V staining, flow cytometric analysis (apoptosis); details: for HMFI population: 30 min illumination; for HMFI population (Annexin V positive, TP2Py positive): 2µM, 2 hours
Description: MCF-7 cells were plated in 12-well plates (2.10^5 cells/well) and incubated with 2µM of TP2Py for 2h at 37°C. Under specific conditions (see Fig. 12), cells were further incubated with NAC (1mM) for 30 min, Bapta-AM (20µM) for 3h, or CsA (10µM) for 1h at 37°C. After a time illumination of either 30 or 60 min at […] (Mercury lamp (130W; 380-600nm) + excitation filter centered at 452nm (± 45nm)), cells were gently scraped and pooled with medium floating cells. Cells were individualized in PBS-EDTA (10mM) and stained as described by the manufacturer (Roche, Germany). Briefly, the cell pellet was re-suspended in 500µl Annexin V-HEPES solution (10 mM HEPES-NaOH, pH 7.4, 140mM NaCl, 5mM CaCl2) and incubated on ice for 30 min in the dark. Cells were then washed in ice-cold HEPES buffer before analysis. Fluorescence signals of fluorescently labelled (FITC) Annexin V and TP2Py were measured by a FACSCalibur flow cytometer (Becton-Dickinson, Sunnyvale, CA, USA) using FL1 and FL2 detectors, respectively.
Different experiments are summarized below: • MCF-7 cells treated with 2µM TP2Py for 2 hours and then stained with FITC-conjugated Annexin V immediately (Fig.12A) without light exposure; • MCF-7 cells treated with 2µM TP2Py for 2 hours and then stained with FITC-conjugated Annexin V after a time illumination (Exc, 452 nm) of 30 min (Fig.12B); • MCF-7 cells treated with 2µM TP2Py for 2 hours and then stained with FITC-conjugated Annexin V after a time illumination (Exc, 452 nm) of 60 min (Fig.12C); • control MCF-7 cells treated with DMSO (1%) only and illuminated for 30 min before Annexin V staining (Fig.12D); • control MCF-7 cells treated with 1µg/mL actinomycin D (ActD), no illumination before Annexin V staining (Fig.12E); • control MCF-7 cells treated with camptothecin (CPT, 10µM)) (Fig.12F) for 2.5 hours, no illumination before Annexin V staining; • MCF-7 cells treated during 2 hours with 2µM TP2Py and 10µM cyclosporine A (CsA) and illuminated for 30 min before Annexin V staining (Fig.12G); • MCF-7 cells treated during 2 hours with 2µM TP2Py and 1 mM N-Acetyl cysteine (NAC) and illuminated for 30 min before Annexin V staining (Fig.12H); and • MCF-7 cells treated during 2 hours with 2µM TP2Py and 20µM Bapta-am (Fig.12I) and illuminated for 30 min before Annexin V staining.
The horizontal (FL1-H) and vertical (FL2-H) axes correspond to the fluorescence signal of Annexin V and TP2Py, respectively. The percentage of population with a high mean fluorescence signal is indicated in the corresponding quadrant (top right or bottom right in the presence or absence of TP2Py, respectively).

Compound: C[n+]1ccc(/C=C/c2ccc(N(c3ccccc3)c3ccc(/C=C/c4cc[n+](C)cc4)cc3)cc2)cc1 [TP2Py]
- CC50 [1]: > 30 µM
- start of re-localization into the nucleus after the first excitation (living MCF-7 cells; 2 µM, 2 hours): 5 to 15 min
- light dose (living MCF-7 cells): ≈ 300 J/cm^2
- HMFI population (H2DCF-DA positive, TP2Py positive) ([2]; 30 min illumination, 40mW/cm^2): 15.4%
- HMFI population (H2DCF-DA positive, TP2Py positive) ([2]; without light exposure): 4.9%
- HMFI population (MCF-7 cells; 2µM TP2Py with 10µM cyclosporine A (CsA)): 13%
- HMFI population (MCF-7 cells; 2µM TP2Py with 20µM Bapta-am): 19%
- HMFI population (MCF-7 cells; 2µM TP2Py with 1 mM N-Acetyl cysteine (NAC)): 25%
- HMFI population (Annexin V positive, TP2Py positive) (MCF-7 cells; 30 min illumination (452 nm, 40 MW.cm^-2)): 29%
- HMFI population (Annexin V positive, TP2Py positive) (MCF-7 cells; 60 min illumination): 38%
- HMFI population (Annexin V positive, TP2Py positive) (MCF-7 cells; without light illumination): 4.3%
